# From the supplement of paper PMC10307832
# Experiments:
# Assay in all cases: relative viability (nuclei count vs DMSO), 5 days (fraction); higher = more cells survive
# NCI-H23 = tested on: NCI-H23
# Procedure, shortened: (§1)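 Lung cancer cell lines in 1536-well plates got either a single drug or a fixed anchor-drug dose together with five library-drug doses (not always all listed) in √10 steps, by pin tool, on the day after seeding. Nuclei were counted after 5 days, and relative viability is the treated-to-vehicle ratio of nuclei counts. Values are medians of duplicate plates.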
# NCI-H2087 = tested on: NCI-H2087
# Procedure, shortened: as §1
# NCI-H596 = tested on: NCI-H596
# Procedure, shortened: as §1
# LCLC-103H = tested on: LCLC-103H
# Procedure, shortened: as §1
# NCI-H3122 = tested on: NCI-H3122
# Procedure, shortened: as §1
# NCI-H2347 = tested on: NCI-H2347
# Procedure, shortened: as §1
# NCI-H1395 = tested on: NCI-H1395
# Procedure, shortened: as §1
# NCI-H1993 = tested on: NCI-H1993
# Procedure, shortened: as §1
# NCI-H727 = tested on: NCI-H727
# Procedure, shortened: as §1
# NCI-H2023 = tested on: NCI-H2023
# Procedure, shortened: as §1
# NCI-H650 = tested on: NCI-H650
# Procedure, shortened: as §1
# EMC-BAC-2 = tested on: EMC-BAC-2
# Procedure, shortened: as §1
compound,measurement,setting,value
NC(=O)Nc1cc(-c2cccc(F)c2)sc1C(=O)N[C@H]1CCCNC1 [AZD7762] + CCNC(=O)c1noc(-c2cc(C(C)C)c(O)cc2O)c1-c1ccc(CN2CCOCC2)cc1 [Luminespib] (partner 0.01 µM),relative viability,NCI-H23; first compound 0.01 µM,0.226
same,relative viability,NCI-H23; first compound 0.03162 µM,0.189
same,relative viability,NCI-H23; first compound 0.1 µM,0.194
same,relative viability,NCI-H23; first compound 0.3162 µM,0.206
same,relative viability,NCI-H23; first compound 1 µM,0.194
same,relative viability,NCI-H2087; first compound 0.01 µM,0.203
same,relative viability,NCI-H2087; first compound 0.03162 µM,0.145
same,relative viability,NCI-H2087; first compound 0.1 µM,0.237
same,relative viability,NCI-H2087; first compound 0.3162 µM,0.173
same,relative viability,NCI-H2087; first compound 1 µM,0.162
same,relative viability,NCI-H596; first compound 0.01 µM,0.985
same,relative viability,NCI-H596; first compound 0.03162 µM,1.02
same,relative viability,NCI-H596; first compound 0.1 µM,0.999
same,relative viability,NCI-H596; first compound 0.3162 µM,1.07
same,relative viability,NCI-H596; first compound 1 µM,1.03
same,relative viability,LCLC-103H; first compound 0.01 µM,1.06
same,relative viability,LCLC-103H; first compound 0.03162 µM,0.932
same,relative viability,LCLC-103H; first compound 0.1 µM,1.01
same,relative viability,LCLC-103H; first compound 0.3162 µM,0.943
same,relative viability,LCLC-103H; first compound 1 µM,0.953
same,relative viability,NCI-H3122; first compound 0.01 µM,0.0859
same,relative viability,NCI-H3122; first compound 0.03162 µM,0.0843
same,relative viability,NCI-H3122; first compound 0.1 µM,0.109
same,relative viability,NCI-H3122; first compound 0.3162 µM,0.0927
same,relative viability,NCI-H3122; first compound 1 µM,0.0813
same,relative viability,NCI-H2347; first compound 0.01 µM,0.417
same,relative viability,NCI-H2347; first compound 0.03162 µM,0.573
same,relative viability,NCI-H2347; first compound 0.1 µM,0.715
same,relative viability,NCI-H2347; first compound 0.3162 µM,0.396
same,relative viability,NCI-H2347; first compound 1 µM,0.63
same,relative viability,NCI-H1395; first compound 0.01 µM,0.699
same,relative viability,NCI-H1395; first compound 0.03162 µM,0.788
same,relative viability,NCI-H1395; first compound 0.1 µM,0.888
same,relative viability,NCI-H1395; first compound 0.3162 µM,0.468
same,relative viability,NCI-H1395; first compound 1 µM,0.341
same,relative viability,NCI-H1993; first compound 0.01 µM,1.04
same,relative viability,NCI-H1993; first compound 0.03162 µM,0.948
same,relative viability,NCI-H1993; first compound 0.1 µM,0.81
same,relative viability,NCI-H1993; first compound 0.3162 µM,0.971
same,relative viability,NCI-H1993; first compound 1 µM,0.678
same,relative viability,NCI-H727; first compound 0.01 µM,0.24
same,relative viability,NCI-H727; first compound 0.03162 µM,0.499
same,relative viability,NCI-H727; first compound 0.1 µM,0.291
same,relative viability,NCI-H727; first compound 0.3162 µM,0.325
same,relative viability,NCI-H727; first compound 1 µM,0.279
same,relative viability,NCI-H2023; first compound 0.01 µM,0.824
same,relative viability,NCI-H2023; first compound 0.03162 µM,0.498
same,relative viability,NCI-H2023; first compound 0.1 µM,0.228
same,relative viability,NCI-H2023; first compound 0.3162 µM,0.141
same,relative viability,NCI-H2023; first compound 1 µM,0.114
same,relative viability,NCI-H650; first compound 0.01 µM,0.801
same,relative viability,NCI-H650; first compound 0.03162 µM,0.728
same,relative viability,NCI-H650; first compound 0.1 µM,0.763
same,relative viability,NCI-H650; first compound 0.3162 µM,0.641
same,relative viability,NCI-H650; first compound 1 µM,0.458
same,relative viability,EMC-BAC-2; first compound 0.01 µM,1.23
same,relative viability,EMC-BAC-2; first compound 0.03162 µM,1.16
